Assay results reported in the supplement of paper PMC10307832.

Experiments:
Experiment in all cases: relative viability (nuclei count vs DMSO), 5 days (fraction); higher = more cells survive
ChaGo-K-1 = test system: ChaGo-K-1
In short: (§1)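 Each reported value is a median over duplicate plates. It expresses relative viability: treated-well nuclei count divided by vehicle-well nuclei count. Lung cancer cell lines in 1536-well plates were dosed by pin tool a day after seeding, alone with one drug or with a fixed anchor-drug dose plus five library-drug doses (not always all listed) in √10 steps, and nuclei were counted after 5 days.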

EPLC-272H = test system: EPLC-272H
In short: as §1

H3255 = test system: H3255
In short: as §1

HARA = test system: HARA
In short: as §1

HCC-78 = test system: HCC-78
In short: as §1

HOP-62 = test system: HOP-62
In short: as §1

LCLC-97TM1 = test system: LCLC-97TM1
In short: as §1

LXF-289 = test system: LXF-289
In short: as §1

NCI-H1395 = test system: NCI-H1395
In short: as §1

NCI-H1437 = test system: NCI-H1437
In short: as §1

NCI-H1666 = test system: NCI-H1666
In short: as §1

NCI-H1793 = test system: NCI-H1793
In short: as §1

NCI-H1944 = test system: NCI-H1944
In short: as §1

NCI-H2085 = test system: NCI-H2085
In short: as §1

NCI-H2087 = test system: NCI-H2087
In short: as §1

NCI-H2126 = test system: NCI-H2126
In short: as §1

NCI-H3122 = test system: NCI-H3122
In short: as §1

NCI-H441 = test system: NCI-H441
In short: as §1

NCI-H596 = test system: NCI-H596
In short: as §1

PC-14 = test system: PC-14
In short: as §1

Structure (SMILES): CCNC(=O)c1noc(-c2cc(C(C)C)c(O)cc2O)c1-c1ccc(CN2CCOCC2)cc1 [Luminespib] + NC(=O)Nc1cc(-c2cccc(F)c2)sc1C(=O)N[C@H]1CCCNC1 [AZD7762] (partner 0.2 µM)
- relative viability (ChaGo-K-1; first compound 0.002 µM): 0.9
- relative viability (ChaGo-K-1; first compound 0.006325 µM): 0.905
- relative viability (ChaGo-K-1; first compound 0.02 µM): 0.799
- relative viability (ChaGo-K-1; first compound 0.06325 µM): 0.515
- relative viability (ChaGo-K-1; first compound 0.2 µM): 0.172
- relative viability (EPLC-272H; first compound 0.002 µM): 0.224
- relative viability (EPLC-272H; first compound 0.006325 µM): 0.389
- relative viability (EPLC-272H; first compound 0.02 µM): 0.193
- relative viability (EPLC-272H; first compound 0.06325 µM): 0.0934
- relative viability (EPLC-272H; first compound 0.2 µM): 0.127
- relative viability (H3255; first compound 0.002 µM): 0.857
- relative viability (H3255; first compound 0.006325 µM): 0.794
- relative viability (H3255; first compound 0.02 µM): 0.808
- relative viability (H3255; first compound 0.06325 µM): 0.774
- relative viability (H3255; first compound 0.2 µM): 0.31
- relative viability (HARA; first compound 0.002 µM): 0.304
- relative viability (HARA; first compound 0.006325 µM): 0.291
- relative viability (HARA; first compound 0.02 µM): 0.511
- relative viability (HARA; first compound 0.06325 µM): 0.18
- relative viability (HARA; first compound 0.2 µM): 0.125
- relative viability (HCC-78; first compound 0.002 µM): 0.562
- relative viability (HCC-78; first compound 0.006325 µM): 0.591
- relative viability (HCC-78; first compound 0.02 µM): 0.536
- relative viability (HCC-78; first compound 0.06325 µM): 0.497
- relative viability (HCC-78; first compound 0.2 µM): 0.333
- relative viability (HOP-62; first compound 0.002 µM): 0.437
- relative viability (HOP-62; first compound 0.006325 µM): 0.463
- relative viability (HOP-62; first compound 0.02 µM): 0.306
- relative viability (HOP-62; first compound 0.06325 µM): 0.129
- relative viability (HOP-62; first compound 0.2 µM): 0.109
- relative viability (LCLC-97TM1; first compound 0.002 µM): 0.251
- relative viability (LCLC-97TM1; first compound 0.006325 µM): 0.22
- relative viability (LCLC-97TM1; first compound 0.02 µM): 0.111
- relative viability (LCLC-97TM1; first compound 0.06325 µM): 0.167
- relative viability (LCLC-97TM1; first compound 0.2 µM): 0.0727
- relative viability (LXF-289; first compound 0.002 µM): 1.07
- relative viability (LXF-289; first compound 0.006325 µM): 1.1
- relative viability (LXF-289; first compound 0.02 µM): 1.12
- relative viability (LXF-289; first compound 0.06325 µM): 0.151
- relative viability (LXF-289; first compound 0.2 µM): 0.0914
- relative viability (NCI-H1395; first compound 0.002 µM): 0.399
- relative viability (NCI-H1395; first compound 0.006325 µM): 0.372
- relative viability (NCI-H1395; first compound 0.02 µM): 0.374
- relative viability (NCI-H1395; first compound 0.06325 µM): 0.343
- relative viability (NCI-H1395; first compound 0.2 µM): 0.384
- relative viability (NCI-H1437; first compound 0.002 µM): 1.11
- relative viability (NCI-H1437; first compound 0.006325 µM): 1.04
- relative viability (NCI-H1437; first compound 0.02 µM): 1.15
- relative viability (NCI-H1437; first compound 0.06325 µM): 0.785
- relative viability (NCI-H1437; first compound 0.2 µM): 0.278
- relative viability (NCI-H1666; first compound 0.002 µM): 0.828
- relative viability (NCI-H1666; first compound 0.006325 µM): 0.835
- relative viability (NCI-H1666; first compound 0.02 µM): 0.903
- relative viability (NCI-H1666; first compound 0.06325 µM): 0.78
- relative viability (NCI-H1666; first compound 0.2 µM): 0.589
- relative viability (NCI-H1793; first compound 0.002 µM): 0.406
- relative viability (NCI-H1793; first compound 0.006325 µM): 0.422
- relative viability (NCI-H1793; first compound 0.02 µM): 0.15
- relative viability (NCI-H1793; first compound 0.06325 µM): 0.0769
- relative viability (NCI-H1793; first compound 0.2 µM): 0.11
- relative viability (NCI-H1944; first compound 0.002 µM): 0.525
- relative viability (NCI-H1944; first compound 0.006325 µM): 0.426
- relative viability (NCI-H1944; first compound 0.02 µM): 0.307
- relative viability (NCI-H1944; first compound 0.06325 µM): 0.149
- relative viability (NCI-H1944; first compound 0.2 µM): 0.134
- relative viability (NCI-H2085; first compound 0.002 µM): 0.923
- relative viability (NCI-H2085; first compound 0.006325 µM): 0.909
- relative viability (NCI-H2085; first compound 0.02 µM): 0.694
- relative viability (NCI-H2085; first compound 0.06325 µM): 0.389
- relative viability (NCI-H2085; first compound 0.2 µM): 0.245
- relative viability (NCI-H2087; first compound 0.002 µM): 1.34
- relative viability (NCI-H2087; first compound 0.006325 µM): 1.1
- relative viability (NCI-H2087; first compound 0.02 µM): 1.45
- relative viability (NCI-H2087; first compound 0.06325 µM): 0.19
- relative viability (NCI-H2087; first compound 0.2 µM): 0.117
- relative viability (NCI-H2126; first compound 0.002 µM): 0.984
- relative viability (NCI-H2126; first compound 0.006325 µM): 1.01
- relative viability (NCI-H2126; first compound 0.06325 µM): 0.846
- relative viability (NCI-H2126; first compound 0.2 µM): 0.296
- relative viability (NCI-H3122; first compound 0.002 µM): 0.948
- relative viability (NCI-H3122; first compound 0.006325 µM): 0.942
- relative viability (NCI-H3122; first compound 0.02 µM): 0.626
- relative viability (NCI-H3122; first compound 0.06325 µM): 0.109
- relative viability (NCI-H3122; first compound 0.2 µM): 0.0654
- relative viability (NCI-H441; first compound 0.002 µM): 1.08
- relative viability (NCI-H441; first compound 0.006325 µM): 1.05
- relative viability (NCI-H441; first compound 0.02 µM): 1.18
- relative viability (NCI-H441; first compound 0.06325 µM): 0.308
- relative viability (NCI-H441; first compound 0.2 µM): 0.126
- relative viability (NCI-H596; first compound 0.002 µM): 1.11
- relative viability (NCI-H596; first compound 0.006325 µM): 1.17
- relative viability (NCI-H596; first compound 0.02 µM): 0.857
- relative viability (NCI-H596; first compound 0.06325 µM): 0.934
- relative viability (NCI-H596; first compound 0.2 µM): 0.879
- relative viability (PC-14; first compound 0.002 µM): 0.32
- relative viability (PC-14; first compound 0.006325 µM): 0.38
- relative viability (PC-14; first compound 0.02 µM): 0.179
- relative viability (PC-14; first compound 0.06325 µM): 0.102
- relative viability (PC-14; first compound 0.2 µM): 0.0933
